Several values for one entry are separate records, joined by “and”; a condition that tells them apart may be missing. Equal values may be shown once.
What was measured:
[1] = target: T1, human adrenergic receptor α1A (Homo sapiens, UniProt P35348); test: Intrinsic activity, aequorin luminescence functional assay at α1A-AR; assay type: cell-based; details: for α1A-AR Profile: agonist/antagonist profile; for IC50: cells expressing aequorin and human α1A, against phenylephrine, means of three independent experiments in duplicates; for Selectivity Ratio α1B/α1A: selectivity for α1A-AR (IC50(α1B-AR)/IC50(α1A-AR))
T1 sequence (P35348 1-466): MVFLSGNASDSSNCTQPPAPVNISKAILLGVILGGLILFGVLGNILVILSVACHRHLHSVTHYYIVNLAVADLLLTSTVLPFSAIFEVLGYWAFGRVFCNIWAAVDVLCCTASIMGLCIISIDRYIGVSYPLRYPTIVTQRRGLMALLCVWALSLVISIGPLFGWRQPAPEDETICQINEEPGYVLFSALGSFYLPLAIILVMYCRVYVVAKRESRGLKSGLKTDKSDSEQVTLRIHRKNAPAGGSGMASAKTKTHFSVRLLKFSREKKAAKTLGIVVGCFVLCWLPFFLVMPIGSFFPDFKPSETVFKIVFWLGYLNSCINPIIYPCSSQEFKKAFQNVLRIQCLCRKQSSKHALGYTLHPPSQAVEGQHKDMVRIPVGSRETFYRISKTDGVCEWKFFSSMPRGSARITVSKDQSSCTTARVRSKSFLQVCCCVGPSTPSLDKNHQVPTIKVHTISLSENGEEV
Protocol: (§1) The subtype selectivity for α1A and α1B was calculated as IC50(α1B-AR)/IC50(α1A-AR) and IC50(α1A-AR)/IC50(α1B-AR) ratio, respectively.
(§2) Intrinsic activity at the α1-AR subtypes studies were performed using the cells expressing mitochondrially-targeted aequorin and one of the human adrenergic receptor α1A or α1B (PerkinElmer, Boston, MA, USA), according to the manufacturer’s instructions. For measurement, frozen cells were thawed and re-suspended in 10 mL of assay buffer containing 5 μM “Coelenterazine h”. This cell suspension was put in a 10 mL Falcon tube, fixed onto a rotating heel, and incubated overnight at rt in the dark (8 rpm; 45° angle). Cells were diluted with Assay Buffer to 5000 cells/20 μL. […] The light emitted was recorded for 20 s. Cells with antagonists were incubated for 15 min at room temperature. […] Luminescence was measured using the multidetection microplate reader (POLARstar Omega, BMG LABTECH, Ortenberg, Germany).
(§3) All statistics were performed using GraphPad Prism, Version 6.0 (GraphPad Software, San Diego, CA, USA). In the radioligand binding study, data were analyzed by a one-site curve-fitting equation, and inhibition constants (Ki) values were calculated via the Cheng-Prusoff equation [63]. In functional studies, data were analyzed using a sigmoidal dose-response (variable slope) equation. Arterial blood pressure data were analyzed using a two-way ANOVA with Sidak’s post-hoc test for multiple comparisons. A p < 0.05 was considered statistically significant.

[2] = target: T2, human adrenergic receptor α1B (Homo sapiens, UniProt P35368); test: Intrinsic activity, aequorin luminescence functional assay at α1B-AR; assay type: cell-based; details: for α1B-AR Profile: agonist/antagonist profile; for IC50: cells expressing aequorin and human α1B, against phenylephrine, means of three independent experiments in duplicates; for Selectivity Ratio α1A/α1B: selectivity for α1B-AR (IC50(α1A-AR)/IC50(α1B-AR))
T2 sequence (P35368 1-520): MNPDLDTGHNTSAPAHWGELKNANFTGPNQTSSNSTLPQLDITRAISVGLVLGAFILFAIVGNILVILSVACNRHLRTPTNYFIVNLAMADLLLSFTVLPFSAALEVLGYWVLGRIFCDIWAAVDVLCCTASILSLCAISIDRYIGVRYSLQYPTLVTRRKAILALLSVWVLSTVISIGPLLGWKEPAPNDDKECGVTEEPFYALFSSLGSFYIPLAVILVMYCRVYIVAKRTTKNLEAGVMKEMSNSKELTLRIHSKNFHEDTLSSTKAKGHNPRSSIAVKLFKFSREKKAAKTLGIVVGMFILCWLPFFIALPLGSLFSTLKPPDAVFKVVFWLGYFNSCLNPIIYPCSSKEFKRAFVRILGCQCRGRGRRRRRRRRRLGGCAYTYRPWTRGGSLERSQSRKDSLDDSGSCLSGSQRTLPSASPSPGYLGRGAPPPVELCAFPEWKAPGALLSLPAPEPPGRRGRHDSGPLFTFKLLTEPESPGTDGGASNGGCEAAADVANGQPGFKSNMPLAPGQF
Protocol: as §1, §2, §3

[3] = system: arterial blood pressure of normotensive Wistar rats; test: Influence on blood pressure in normotensive anesthetized rats after i.v. administration; assay type: in vivo, rat; details: for Diastolic blood pressure / Systolic blood pressure: mean, n = 6
Protocol: In the next step, the hypotensive activity of novel compounds 1–3, 5–9, and 11–14 was determined after i.v. administration to normotensive anesthetized rats. All results are shown in Supplementary Table S1.
The normotensive rats were anesthetized with thiopental (75 mg/kg) by intraperitoneal injection (i.p.). The left carotid artery was cannulated with a polyethylene tub filled with heparin in saline to facilitate pressure measurements using a PowerLab Apparatus (ADInstruments, Sydney, Australia). Blood pressure was measured immediately before administration of the tested compounds or vehicle—time 0 min (initial blood pressure) and 60 min thereafter. Initial blood pressure before administration of the tested chemicals in all experimental groups was similar. The tested compounds were dissolved in a specific vehicle: ethyl alcohol 5% − kolliphor 5% − water 90%. All tested chemicals were administrated intravenously (i.v.) at a constant volume of 1 mL/kg after 20 min of stabilization period. The compounds were tested at a starting dose of 2 mg/kg. If the hypotensive activity was found, the dose was reduced by half. The dosing was continued until the hypotensive effects disappeared. Urapidil was used as a reference compound.
as §3

[4] = target: α1-adrenoceptors (α1-ARs), rat cerebral cortex; test: Radioligand binding assay with [3H]-prazosin, affinity for α1-ARs; details: three independent experiments in duplicates, read-out: α1-adrenoceptor affinity Ki
Protocol: In the first step, all synthesized compounds (1–15) were tested in vitro for their affinity for α1-ARs on rat cerebral cortex by the radioligand binding assay using [^3H]-prazosin as a specific radioligand.
The affinity for α1-ARs was determined by radioligand binding assay on rat cerebral cortex using [3H]-prazosin as a specific radioligand. The brains were homogenized in 20 volumes of an ice-cold 50 mM Tris-HCl buffer (pH 7.6) and were centrifuged (MPW Med. Instruments, Warsaw, Poland) at 20,000× g for 20 min (0–4 °C). The cell pellet was resuspended in the Tris-HCl buffer and centrifuged again. Radioligand-binding assay was performed in plates (MultiScreen/Millipore, Burlington, MA, USA). The final incubation mixture (final volume 300 μL) consisted of 240 μL of the membrane suspension, 30 μL of [3H]-Prazosin (0.2 nM) solution, and 30 μL of the buffer containing seven to eight concentrations (10^−11 to 10^−4 M) of the tested compounds. For measuring the unspecific binding, phentolamine, 10 μM (in the case of [3H]-Prazosin) was applied. The incubation was terminated by rapid filtration over glass fiber filters (Whatman GF/C, Sigma-Aldrich) using a vacuum manifold (Millipore). The filters were then washed twice with the assay buffer and placed in scintillation vials with a liquid-scintillation cocktail. Radioactivity was measured in a WALLAC 1409 DSA liquid-scintillation counter (BioSurplus, San Diego, CA, USA).
as §3

[5] = 0.0625 mg/kg i.v., 0 min (initial, before administration)
[6] = i.v., normotensive anesthetized rats
[7] = 2.0 mg/kg i.v., 0 min (initial, before administration)

Compound: COc1ccccc1N1CCN(CCCCCCN2C(=O)N(Cc3ccc(Cl)cc3Cl)C(=O)C2(C)C)CC1.Cl [Compound 5, 3-(2,4-dichlorobenzyl)-1-(6-(4-(2-methoxyphenyl)piperazin-1-yl)hexyl)-5,5-dimethylimidazolidine-2,4-dione hydrochloride]
- α1A-AR Profile [1]: Antagonist
- IC50 [1]: < 100 nM and 0.02 nM
- Selectivity Ratio α1B/α1A [1]: 0.10
- α1B-AR Profile [2]: Antagonist
- IC50 [2]: < 100 nM and < 11 nM and 0.002 nM
- Selectivity Ratio α1A/α1B [2]: 10.00
- melting point: 205 to 207 °C
- Diastolic blood pressure [3, 5]: 92.0
- Systolic blood pressure [3, 5]: 128.8
- Diastolic blood pressure ([3]; 0.0625 mg/kg i.v., 5 min): 87.7
- Systolic blood pressure ([3]; 0.0625 mg/kg i.v., 5 min): 121.0
- Diastolic blood pressure ([3]; 0.0625 mg/kg i.v., 10 min): 84.2
- Systolic blood pressure ([3]; 0.0625 mg/kg i.v., 10 min): 116.8
- Diastolic blood pressure ([3]; 0.0625 mg/kg i.v., 20 min): 81.7
- Systolic blood pressure ([3]; 0.0625 mg/kg i.v., 20 min): 114.2
- Diastolic blood pressure ([3]; 0.0625 mg/kg i.v., 30 min): 82.7
- Systolic blood pressure ([3]; 0.0625 mg/kg i.v., 30 min): 113.3
- Diastolic blood pressure ([3]; 0.0625 mg/kg i.v., 40 min): 81.7
- Systolic blood pressure ([3]; 0.0625 mg/kg i.v., 40 min): 114.7
- Diastolic blood pressure ([3]; 0.0625 mg/kg i.v., 50 min): 81.8
- Systolic blood pressure ([3]; 0.0625 mg/kg i.v., 50 min): 116.8
- Diastolic blood pressure ([3]; 0.0625 mg/kg i.v., 60 min): 83.3
- Systolic blood pressure ([3]; 0.0625 mg/kg i.v., 60 min): 116.3
- hypotensive dose lower than that of urapidil ([3]; 0.0625 vs. 1.0 mg/kg): 16 fold
- effect on systolic and diastolic blood pressure (in words) [3, 6]: statistically significant reduction
- lowest hypotensive (effective) dose [3, 6]: 0.0625 mg/kg
- Ki [4]: 12.7 nM

Compound: CC1(C)C(=O)N(Cc2ccc(Cl)cc2Cl)C(=O)N1CC(O)CN1CCN(c2ccccc2)CC1.Cl (stereo not drawn) [Compound 6, 3-(2,4-dichlorobenzyl)-1-(2-hydroxy-3-(4-phenylpiperazin-1-yl)propyl)-5,5-dimethylimidazolidine-2,4-dione hydrochloride]
- α1A-AR Profile [1]: Antagonist
- IC50 [1]: 5910 nM
- Selectivity Ratio α1B/α1A [1]: 0.15
- α1B-AR Profile [2]: Antagonist
- IC50 [2]: 905 nM
- Selectivity Ratio α1A/α1B [2]: 6.53
- melting point: 196 to 198 °C
- Diastolic blood pressure [3, 7]: 98.2
- Systolic blood pressure [3, 7]: 134.2
- Diastolic blood pressure ([3]; 2.0 mg/kg i.v., 5 min): 87.2
- Systolic blood pressure ([3]; 2.0 mg/kg i.v., 5 min): 124.2
- Diastolic blood pressure ([3]; 2.0 mg/kg i.v., 10 min): 90.3
- Systolic blood pressure ([3]; 2.0 mg/kg i.v., 10 min): 125.2
- Diastolic blood pressure ([3]; 2.0 mg/kg i.v., 20 min): 89.7
- Systolic blood pressure ([3]; 2.0 mg/kg i.v., 20 min): 126.3
- Diastolic blood pressure ([3]; 2.0 mg/kg i.v., 30 min): 89.0
- Systolic blood pressure ([3]; 2.0 mg/kg i.v., 30 min): 125.0
- Diastolic blood pressure ([3]; 2.0 mg/kg i.v., 40 min): 89.0
- Systolic blood pressure ([3]; 2.0 mg/kg i.v., 40 min): 126.7
- Diastolic blood pressure ([3]; 2.0 mg/kg i.v., 50 min): 89.2
- Systolic blood pressure ([3]; 2.0 mg/kg i.v., 50 min): 125.5
- Diastolic blood pressure ([3]; 2.0 mg/kg i.v., 60 min): 88.7
- Systolic blood pressure ([3]; 2.0 mg/kg i.v., 60 min): 125.8
- Ki [4]: 53 nM
